This data set is described as follows: Spectrophotometric absorbance at 228 nm before and after 0.22 micron filtration (Example 12). It counts as physicochemical. The settings on record: 70% ethanol in water, organic solvent or mixture; as prepared in Example 1, 70% ethanol; read-out: concentration at which fully soluble. The protocol: A UV-VIS Genesys 105 Thermo Scientific spectrophotometer was used for the assay. Samples were placed in a UV Kurette Halbmicro/UV Cuvette semi micro [Cat no: 759150] for reading.
Because the reference describes measurements at μg/ml concentrations, both the filtered and unfiltered 18 mg/ml solutions were diluted to 9 μg/ml and 12.5 μg/ml and measured again.

Structures are written as SMILES. Counter-ions that a name gives are not always drawn.

As for `CCCc1nn(C)c2c(=O)[nH]c(-c3cc(S(=O)(=O)N4CCN(C)CC4)ccc3OCC)nc12` [sildenafil citrate], the solubility at 10 min was 18 mg/mL.
